Reference: patent US20080091140A1, “Cardiac Reperfusion Methods and Devices” (priority 2006, published 2008)
Marks after values point to notes of the source that are not given here.

What was measured:
Format in all cases: in vivo, Female juvenile domestic swine
[1] = tested on: acute regional myocardial ischemia and reperfusion (LAD occlusion); assay: Hemodynamic assessment (rate pressure product) in swine LAD ischemia-reperfusion with Trans Guide wire Therapy; details: for rate pressure product (RPP), Pre-sacrifice: after 2 h reperfusion, chloramphenicol 10 mg TGT plus 40 mg/Kg IV just prior to reperfusion, p=0.02 vs saline
Protocol: (§1) Methods: Female juvenile pigs (n=14) were used. All animals received 250 mg of aspirin and 100 U/Kg of heparin IV. Tying the mid Left Anterior Descending Artery (“LAD”) after distal TGT (Trans Guide wire Therapy) wire placement induced acute myocardial ischemia. The TGT system consisted of a 0.014 inch nitinol torquable guide wire and removable stopcock. The distal 30 mm tip was flexible and radio-opaque. Immediately proximal to the tip were delivery holes to facilitate TGT delivery. TGT was delivered after 30 minutes of ischemia. The distal coronary vascular bed was visualized by injection with radiographic contrast (n=2) and Evans blue (n=2). […] Suture removal allowed 2 hours of reperfusion prior to sacrifice. Hemodynamics expressed as the heart rate blood pressure product (RPP) was assessed continuously. Echocardiographic LV ejection fraction (LVEF) was measured at baseline, end of ischemia (pre-TGT) and pre-sacrifice. Device success was defined as successful TGT delivery.
Animal Preparation: Female juvenile domestic swine, weight 30-50 kg, were studied. […] Anaesthesia was induced with an intramuscular injection of ketamine (20 mg/kg) followed by inhaled isoflurane (0.5-2.0%). After general anaesthesia the femoral artery was cannulated. A pulmonary artery cannula was positioned via the right internal jugular vein. All animals received 250 mg of IV aspirin and 100 U/Kg units of heparin intravenously to achieve an ACT above 250 s.
(§2) Interventional Coronary and Surgical Procedures: A 6F Hockey stick guide catheter cannulated the left main coronary artery. The TGT wire, flushed with heparin, was positioned in the distal left anterior descending (LAD) artery. After a midline sternotomy acute regional myocardial ischemia was induced by occluding the mid portion of the LAD with a surgical suture. Fluoroscopy ensured the suture was above the infusion ports of the TGT wire with distal TIMI 0 flow. Lidocaine was given as a bolus and infusion at the onset of ischemia and for the remainder of the experiment. TGT injection was performed at the end of a 30 minute ischemic period after which the suture was removed to allow reperfusion. Restoration of TIMI 3 flow was documented by cine-angiography. Animals were sacrificed after 2 hours of reperfusion and the hearts were harvested for immunohistochemistry.
Hemodynamic Assessment: There was continuous measurement of hemodynamic parameters. Cardiac output was measured immediately before and after ischemia and pre-sacrifice. Hemodynamic stability and contractility were supported medically by IV dopamine, and epinephrine to maintain MAP above 50 mmg. Boluses of atropine (1 mg) and lidocaine (100 mg) were given as appropriate for treatment of arrhythmias. […] Each administration of these drugs was recorded as 1 arbitrary unit. […]

[2] = tested on: acute regional myocardial ischemia and reperfusion (LAD occlusion); assay: Supportive drug therapy required during ischemia-reperfusion (arbitrary units); details: chloramphenicol 10 mg TGT plus 40 mg/Kg IV
Protocol: as §1, §2
Hemodynamic Assessment: There was continuous measurement of hemodynamic parameters. Cardiac output was measured immediately before and after ischemia and pre-sacrifice. Hemodynamic stability and contractility were supported medically by IV dopamine, and epinephrine to maintain MAP above 50 mmg. Boluses of atropine (1 mg) and lidocaine (100 mg) were given as appropriate for treatment of arrhythmias. IV calcium and bicarbonate were given in appropriate doses during cardiopulmonary resuscitation. Each administration of these drugs was recorded as 1 arbitrary unit.
The latter was prepared as 10 mg in 0.5 cc of saline for TGT in addition to 40 mg/Kg IV. Injections were performed just prior to reperfusion.

[3] = tested on: acute regional myocardial ischemia and reperfusion (LAD occlusion); assay: Echocardiographic LV ejection fraction
Caspase 3 = assay: Western blotting of infarct border area: Caspase 3; details: infarct border area after 2 h reperfusion, p=0.007 vs saline
From the text: as §2, with “immunohistochemistry. Western Blotting: After cardiac harvest the infarct border area was immediately frozen in liquid nitrogen. […] Supernatant protein concentration was measured using a BCA assay kit (Pierce Laboratories). […] After 3 TBST washings the immunocomplexes were developed using an enhanced HPO/luminol chemiluminescence reaction, and recorded photographically (Hyper film ECL; Amersham) by 10 s to 3 min exposure. […] Quantification was performed using scanning densitometry with image J software.” for “immunohistochemistry.”

apoptosis = assay: TUNEL staining for apoptosis in heart tissue sections; details: heart tissue after 2 h reperfusion; non-discriminatory vs saline
[4] = tested on: acute regional myocardial ischemia and reperfusion (LAD occlusion); assay: Survival of the reperfusion period; details: of 5 chloramphenicol TGT treated animals, to sacrifice at 2 h
Protocol: as §1
Interventional Coronary and Surgical Procedures: A 6F Hockey stick guide catheter cannulated the left main coronary artery. The TGT wire, flushed with heparin, was positioned in the distal left anterior descending (LAD) artery. After a midline sternotomy acute regional myocardial ischemia was induced by occluding the mid portion of the LAD with a surgical suture. […]

[5] = each administration recorded as 1 arbitrary unit, group sum

With `O=C(N[C@H](CO)[C@H](O)c1ccc([N+](=O)[O-])cc1)C(Cl)Cl` [chloramphenicol] the “rate pressure product (RPP), Pre-sacrifice” value [1] was 3720.0 (+/−510.2), the “rate pressure product (RPP), Pre-sacrifice” value ([1]; listed as Chloramphenicol) was 3720.0 +/− 510.2* and the “rate pressure product (RPP), Baseline” value ([1]; baseline, before ischemia and before TGT, chloramphenicol TGT group (n=5)) was 3980.8 +/− 594.5. The “rate pressure product (RPP), End of ischemia” value ([1]; end of 30 min ischemia, pre-TGT, chloramphenicol TGT group (n=5)) was 2969.5 +/− 687.2, the “supportive therapy: Atropine” value [2, 5] was 2.5 arbitrary units and the “supportive therapy: Bicarbonate” value [2, 5] was 1 arbitrary units. For the same compound, the “supportive therapy: Dopamine” value [2, 5] was 1 arbitrary units, the “supportive therapy: Epinephrine” value [2, 5] was 1 arbitrary units and the “supportive therapy: Lidocaine” value [2, 5] was 4.5 arbitrary units. The “supportive therapy: calcium” value [2, 5] was 0 arbitrary units, the “supportive therapy / intravenous inotrope support, mean” value ([2]; mean (+/-), p=0.028 vs saline) was 1.67 (+/−1.6) arbitrary units and the “supportive therapy: Total” value ([2]; sum over all support drugs) was 10 arbitrary units. For the same compound, the “LV ejection fraction, end of ischemia” value ([3]; after 30 minute ischemia, pre-TGT, chloramphenicol TGT group) was 27.3%+/−3.8, the “LV ejection fraction, pre-sacrifice (after reperfusion)” value ([3]; after 2 h reperfusion, chloramphenicol 10 mg TGT plus 40 mg/Kg IV, p<0.001 vs end of ischemia) was 43.3%+/−11.4 and the “caspase-3 band intensity by densitometry” value (Caspase 3) was 346±110. The TUNEL staining (apoptosis) was “weakly positive” and the “animals that survived the period of reperfusion” value [4] was 5.
